The source of these data is patent US20220105135A1, “METHODS AND COMPOSITIONS FOR THE MODULATION OF OPIOID SIGNALING IN THE TUMOR MICROENVIRONMENT” (The Broad Institute, Inc., priority 2020, published 2022).

Data set [1] has as its system CD8+ T cells. The data set is described as follows: In vitro stimulation of CD8+ T cells with MENK peptide. Format: cell-based. The following applies: for coinhibitory receptors / checkpoints expression on T cells: MENK stimulation. An excerpt:
FIG. 55A. […] FIG. 55B. […] FIG. 55C. […] FIG. 55D.
Applicants determined the effect of PENK-OGFR signaling on tumor growth and anti-tumor immunity.

The target in data set [2] is chymotrypsin (Bos taurus, UniProt P00766). To be noted: cited from earlier work.
Data set [3] concerns the target pepsin (Homo sapiens, UniProt P0DJD8). To be noted: cited from earlier work.
For data set [4], the target named is aminopeptidase A (Homo sapiens, UniProt Q07075). The following applies: cited from earlier work.
aminopeptidase A, sequence (Q07075 whole entry, species assumed): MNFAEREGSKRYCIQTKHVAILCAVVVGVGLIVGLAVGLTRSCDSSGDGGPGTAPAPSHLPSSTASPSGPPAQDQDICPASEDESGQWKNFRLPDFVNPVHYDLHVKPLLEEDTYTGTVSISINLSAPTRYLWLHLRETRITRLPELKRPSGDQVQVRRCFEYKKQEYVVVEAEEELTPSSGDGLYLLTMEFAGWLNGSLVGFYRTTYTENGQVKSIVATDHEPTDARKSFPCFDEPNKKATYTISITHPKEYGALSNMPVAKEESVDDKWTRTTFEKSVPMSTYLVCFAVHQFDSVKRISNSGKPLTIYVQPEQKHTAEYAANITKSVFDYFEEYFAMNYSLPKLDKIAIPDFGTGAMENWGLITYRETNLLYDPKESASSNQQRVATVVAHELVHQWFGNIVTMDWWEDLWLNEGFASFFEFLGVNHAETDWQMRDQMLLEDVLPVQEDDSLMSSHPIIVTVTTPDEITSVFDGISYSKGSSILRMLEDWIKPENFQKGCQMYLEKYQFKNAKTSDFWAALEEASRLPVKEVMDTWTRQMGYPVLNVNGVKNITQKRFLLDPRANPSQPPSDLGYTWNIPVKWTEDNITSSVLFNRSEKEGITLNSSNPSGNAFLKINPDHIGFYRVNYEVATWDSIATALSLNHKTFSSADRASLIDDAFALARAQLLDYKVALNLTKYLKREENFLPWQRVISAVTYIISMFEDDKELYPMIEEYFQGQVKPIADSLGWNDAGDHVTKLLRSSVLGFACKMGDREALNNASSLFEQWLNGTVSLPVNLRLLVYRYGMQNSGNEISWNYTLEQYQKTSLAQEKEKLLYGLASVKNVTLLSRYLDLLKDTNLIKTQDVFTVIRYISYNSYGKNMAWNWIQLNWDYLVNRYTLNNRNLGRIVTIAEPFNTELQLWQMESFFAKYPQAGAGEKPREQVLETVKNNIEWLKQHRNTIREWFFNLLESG
Data set [5] has as its system leucine aminopeptidase. To be noted: cited from earlier work.
For data set [6], the system named is bacteria. The arrangement: dose or concentration left out as unconfirmed. The following applies: cited from earlier work.
Data set [7] deals with fungi. The following applies: at 100 pg/ml; cited from earlier work.
The target of data set [8] is T1, papain (Carica papaya, UniProt P00784).
T1 sequence (P00784 134-345): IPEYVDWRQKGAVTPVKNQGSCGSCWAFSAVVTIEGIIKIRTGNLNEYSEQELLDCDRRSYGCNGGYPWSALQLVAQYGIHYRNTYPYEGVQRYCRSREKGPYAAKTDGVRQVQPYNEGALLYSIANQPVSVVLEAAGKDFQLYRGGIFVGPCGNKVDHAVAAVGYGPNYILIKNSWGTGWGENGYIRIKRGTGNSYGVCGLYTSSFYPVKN
To be noted: cited from earlier work.

In data set [9] the test system is elastase. The following applies: cited from earlier work.
For data set [10], the target named is aminopeptidase B (Homo sapiens, UniProt Q9H4A4). To be noted: cited from earlier work.
aminopeptidase B, sequence (Q9H4A4 whole entry, species assumed): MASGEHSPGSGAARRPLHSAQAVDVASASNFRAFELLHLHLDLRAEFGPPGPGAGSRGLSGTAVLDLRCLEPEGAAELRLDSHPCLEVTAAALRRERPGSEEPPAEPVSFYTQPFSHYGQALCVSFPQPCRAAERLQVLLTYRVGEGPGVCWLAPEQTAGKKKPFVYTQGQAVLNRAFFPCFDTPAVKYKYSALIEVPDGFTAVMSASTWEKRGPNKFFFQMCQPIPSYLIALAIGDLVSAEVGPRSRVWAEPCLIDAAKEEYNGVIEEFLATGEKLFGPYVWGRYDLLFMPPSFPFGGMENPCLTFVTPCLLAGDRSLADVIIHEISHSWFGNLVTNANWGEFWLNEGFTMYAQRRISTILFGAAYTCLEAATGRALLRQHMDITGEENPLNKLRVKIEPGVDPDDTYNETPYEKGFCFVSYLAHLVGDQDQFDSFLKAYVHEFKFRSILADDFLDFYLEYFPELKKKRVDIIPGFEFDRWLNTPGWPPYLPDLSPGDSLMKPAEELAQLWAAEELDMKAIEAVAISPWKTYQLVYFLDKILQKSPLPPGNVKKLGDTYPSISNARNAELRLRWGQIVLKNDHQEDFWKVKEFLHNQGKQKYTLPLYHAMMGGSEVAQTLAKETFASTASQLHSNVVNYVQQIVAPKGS
For data set [11] the following is noted: intraperitoneal injection of 300 mg/kg to mice; cited from earlier work.
Data set [12] concerns the target T2, thermolysin (Bacillus thermoproteolyticus, UniProt P00800).
T2 sequence (P00800 233-548): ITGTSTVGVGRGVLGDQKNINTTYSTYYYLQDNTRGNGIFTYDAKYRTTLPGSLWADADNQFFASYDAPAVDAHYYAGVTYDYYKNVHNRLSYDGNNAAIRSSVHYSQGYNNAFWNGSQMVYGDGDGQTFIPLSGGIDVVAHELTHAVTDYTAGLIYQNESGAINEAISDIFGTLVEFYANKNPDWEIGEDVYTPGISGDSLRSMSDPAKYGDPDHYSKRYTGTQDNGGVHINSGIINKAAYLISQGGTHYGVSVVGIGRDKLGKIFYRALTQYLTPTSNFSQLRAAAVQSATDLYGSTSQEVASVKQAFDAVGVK
The following applies: cited from earlier work.

Data set [13] addresses trypsin (Homo sapiens, UniProt P07477). To be noted: cited from earlier work.
Where [14] appears, read: MENK vs control, in vitro, listed as Menk.

pepsin, sequence (P0DJD8 63-388): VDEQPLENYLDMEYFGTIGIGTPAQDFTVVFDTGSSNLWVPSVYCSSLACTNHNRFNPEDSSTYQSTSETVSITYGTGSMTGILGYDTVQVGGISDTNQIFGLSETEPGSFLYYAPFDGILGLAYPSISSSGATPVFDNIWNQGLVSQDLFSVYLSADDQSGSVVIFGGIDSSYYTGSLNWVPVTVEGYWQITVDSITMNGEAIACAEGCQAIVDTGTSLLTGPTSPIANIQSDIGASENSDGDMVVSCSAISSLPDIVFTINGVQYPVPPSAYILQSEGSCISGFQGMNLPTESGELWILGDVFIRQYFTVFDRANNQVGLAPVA

On to “[Met]enkephalin (YGGFM) [MENK, enkephalin peptide produced by proteolytic cleavage of PENK]”, for which, in [1], the “coinhibitory receptors / checkpoints expression on T cells” value is “increases”. The “coinhibitory receptors / checkpoints expression on T cells” value in data set [1] (listed as Menk) is recorded as “increased expression of several checkpoints”. In addition, in [1] (MENK vs control, in vitro), the CD160 entry was “increased”, the IL-2 entry was “decreased”, the PD1 result is “increased” and the “PD1+ TIM3+CD8+ T cells” value is listed as “increased”. In data set [1] (MENK vs control, in vitro), the TIM3 entry was “increased” and the proliferation result is given as “decreased”. Further, in data set [1] (setting [14]), the IL-2 entry is given as “dampened” and the proliferation result is listed as “some reduction”.
Take `CC(C)C[C@H](NC(=O)[C@@H](O)[C@H](N)Cc1ccccc1)C(=O)O` [Bestatin, ubenimex (bestatin)]: the inhibition of chymotrypsin result in data set [2] was “does not show any inhibition”. In addition, the inhibition of pepsin result in [3] is “does not show any inhibition”. Further, the “inhibition of aminopeptidase A” value in data set [4] was “does not show any inhibition”. In addition, in [5], the “inhibition of leucine aminopeptidase” value is “specific inhibitor”. Further, in data set [6], the antibacterial activity result is “no antibacterial”. Also, the antifungal activity result in data set [7] was “no antifungal”. For the same compound, in [8], the inhibition of papain result is “does not show any inhibition”. For the same compound, the inhibition of elastase result in data set [9] is on record as “does not show any inhibition”. Besides, the “inhibition of aminopeptidase B” value in data set [10] is given as “specific inhibitor”. The “toxicity (death)” value in data set [11] was “no death”. Also, in data set [12], the inhibition of thermolysin entry was “does not show any inhibition”. Moreover, the inhibition of trypsin result in [13] is on record as “does not show any inhibition”.
